Source: the supplement of paper PMC4862054

How the values were obtained:
Details in all cases: incubation time: 72 h
BT-474 [1] = test: normalised response (% of control), CellTox Green; higher = less cell death (100 = DMSO, 0 = benzethonium chloride kill control)
Procedure, shortened: (§1)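 Breast cancer cell lines, seeded at 20 µl suspension per well, were incubated for 72 h in 384-well plates containing compound at 5 concentrations. These concentrations rose in 10-fold steps over a 10,000-fold range set for each compound. CellTox Green fluorescence (485/520 nm) was read, then CellTiter-Glo luminescence after 10 min at room temperature, and each plate was normalised to 0.1 % DMSO (100) and a positive kill control (0). Values are normalised signals, each at one concentration.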

BT-549 [2] = test: as above
Procedure, shortened: as §1

CAL-120 [3] = test: as above
Procedure, shortened: as §1

CAL-51 [4] = test: as above
Procedure, shortened: as §1

CAL-85-1 [5] = test: as above
Procedure, shortened: as §1

DU-4475 [6] = test: as above
Procedure, shortened: as §1

HCC1143 [7] = test: as above
Procedure, shortened: as §1

HCC1599 [8] = test: as above
Procedure, shortened: as §1

HCC1937 [9] = test: as above
Procedure, shortened: as §1

Hs578T [10] = test: as above
Procedure, shortened: as §1

MDA-MB-231 [11] = test: as above
Procedure, shortened: as §1

MDA-MB-436 [12] = test: as above
Procedure, shortened: as §1

MDA-MB-453 [13] = test: as above
Procedure, shortened: as §1

MDA-MB-468 [14] = test: as above
Procedure, shortened: as §1

MFM-223 [15] = test: as above
Procedure, shortened: as §1

BT-474 [16] = test: normalised response (% of control), CellTiter-Glo; higher = more viable cells (100 = DMSO, 0 = benzethonium chloride kill control)
Method: (§2)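 DSRT, 72 h incubation, CellTox Green / CellTiter-Glo readout. Signal is normalised to DMSO and benzethonium chloride controls. Value is the normalised response at the highest dose.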

BT-549 [17] = test: as above
Method: as §2

CAL-120 [18] = test: as above
Method: as §2

CAL-148 [19] = test: as above
Method: as §2

CAL-51 [20] = test: as above
Method: as §2

CAL-85-1 [21] = test: as above
Method: as §2

DU-4475 [22] = test: as above
Method: as §2

HCC1143 [23] = test: as above
Method: as §2

HCC1599 [24] = test: as above
Method: as §2

HCC1937 [25] = test: as above
Method: as §2

HDQ-P1 [26] = test: as above
Method: as §2

Hs578T [27] = test: as above
Method: as §2

MCF-10A [28] = test: as above
Method: as §2

MDA-MB-231 [29] = test: as above
Method: as §2

MDA-MB-436 [30] = test: as above
Method: as §2

MDA-MB-453 [31] = test: as above
Method: as §2

MDA-MB-468 [32] = test: as above
Method: as §2

MFM-223 [33] = test: as above
Method: as §2

SK-BR-3 = test: as above
Method: as §2

CAL-148 [34] = test: normalised response (% of control), CellTox Green; higher = less cell death (100 = DMSO, 0 = benzethonium chloride kill control)
Procedure, shortened: as §1

HDQ-P1 [35] = test: as above
Procedure, shortened: as §1

MCF-10A [36] = test: as above
Procedure, shortened: as §1

Row | SMILES | normalised response (BT-474 [1]) [%] | normalised response (BT-549 [2]) [%] | normalised response (CAL-120 [3]) [%] | normalised response (CAL-51 [4]) [%] | normalised response (CAL-85-1 [5]) [%] | normalised response (DU-4475 [6]) [%] | normalised response (HCC1143 [7]) [%] | normalised response (HCC1599 [8]) [%] | normalised response (HCC1937 [9]) [%] | normalised response (Hs578T [10]) [%] | normalised response (MDA-MB-231 [11]) [%] | normalised response (MDA-MB-436 [12]) [%] | normalised response (MDA-MB-453 [13]) [%] | normalised response (MDA-MB-468 [14]) [%] | normalised response (MFM-223 [15]) [%] | normalised response (BT-474 [16]) [%] | normalised response (BT-549 [17]) [%] | normalised response (CAL-120 [18]) [%] | normalised response (CAL-148 [19]) [%] | normalised response (CAL-51 [20]) [%] | normalised response (CAL-85-1 [21]) [%] | normalised response (DU-4475 [22]) [%] | normalised response (HCC1143 [23]) [%] | normalised response (HCC1599 [24]) [%] | normalised response (HCC1937 [25]) [%] | normalised response (HDQ-P1 [26]) [%] | normalised response (Hs578T [27]) [%] | normalised response (MCF-10A [28]) [%] | normalised response (MDA-MB-231 [29]) [%] | normalised response (MDA-MB-436 [30]) [%] | normalised response (MDA-MB-453 [31]) [%] | normalised response (MDA-MB-468 [32]) [%] | normalised response (MFM-223 [33]) [%] | normalised response (SK-BR-3) [%] | normalised response (CAL-148 [34]) [%] | normalised response (HDQ-P1 [35]) [%] | normalised response (MCF-10A [36]) [%]
1 | O=C(O)C(=O)O.[NH-][C@@H]1CCCC[C@H]1[NH-].[Pt+2] [Oxaliplatin] (10000 nM) | 96.6 | 108 | 99.1 | 79.2 | 128 | 96.8 | 68.5 | 98.3 | 92.8 | 107 | 93.5 | 62 | 98.6 | 124 | 93 | 100 | 101 | 106 | 85.5 | 91.5 | 102 | 86.5 | 99.8 | 97.3 | 98.4 | 102 | 97 | 86.4 | 91.5 | 98.4 | 89.5 | 97.2 | 86.9 | 91.9 |  |  | 
2 | C[C@H]1C[C@@H]2[C@H]([C@@H](O)C[C@@]3(C)[C@H]2CC[C@]3(O)C(=O)CO)[C@@]2(C)C=CC(=O)C=C12 [Methylprednisolone] (10000 nM) | 99.9 | 111 | 102 | 119 | 73.1 | 103 | 121 | 86.3 | 94.8 | 126 | 154 | 91.9 | 101 | 151 | 93.2 | 151 | 98.4 | 77.7 | 112 | 130 | 112 | 104 | 104 | 103 | 97.5 | 89.9 | 108 | 101 | 146 | 102 | 96.7 | 106 | 99.6 | 94.5 | 93.7 | 111 | 99.1
3 | CCc1cncnc1N1CCN(Cc2nc3ccc(C(F)(F)F)cc3[nH]2)CC1 (10000 nM) | 93 | 95.6 | 99.6 | 94.5 | 67.3 | 104 | 117 | 99.2 | 90.2 | 72.9 | 118 | 102 | 99.9 | 103 | 103 | 85.8 | 83.9 | 89 | 95.4 | 49.3 | 91.8 | 89.9 | 90 | 85.7 | 82.1 | 102 | 95.7 | 93.8 | 95 | 95.7 | 81.6 | 70 | 78.3 | 89.5 | 103 | 63.1 | 105
4 | Nc1nc2[nH]cc(CCc3ccc(C(=O)N[C@@H](CCC(=O)O)C(=O)O)cc3)c2c(=O)[nH]1 [Pemetrexed] (10000 nM) | 77.3 | 98.9 | 99.8 | 87 | 81.1 | 96.7 | 119 | 91.5 | 99 | 65.3 | 70.5 | 80.4 | 93 |  | 98.8 | 39 | 97.2 | 81.9 | 88.5 | 68.3 | 54.2 | 93.7 | 91 | 75.9 | 65.9 | 82.7 | 18.5 | 91.7 | 48 | 78.1 | 97.5 | 93.3 | 89.7 | 65.9 | 102 | 111 | 72
5 | CNC(=O)c1cc(Oc2ccc(NC(=O)Nc3cc(C(C)(C)C)nn3-c3ccc4ncccc4c3)c(F)c2)ccn1 [Rebastinib] (1000 nM) | 89.2 | 77.5 | 85.9 | 99.7 |  | 99.7 | 115 | 100 | 107 | 106 | 102 | 85.7 | 104 | 64 | 101 | 81.6 | 71.3 | 69.2 | 118 | 74.1 | 87.5 | 96.7 | 102 | 102 | 99.8 | 95.7 | 116 | 102 | 77.8 | 112 | 111 | 102 | 62.2 | 92.1 | 101 |  | 101
6 | CCCS(=O)(=O)Nc1ccc(F)c(C(=O)c2c[nH]c3ncc(-c4ccc(Cl)cc4)cc23)c1F [Vemurafenib] (10000 nM) | 95.4 | 89.5 | 97.3 | 65.3 | 109 | 77.1 | 100 | 95.8 | 78.4 | 71.5 | 87 | 92.7 | 101 | 148 | 97.7 | 82.6 | 71.8 | 91.1 | 94.7 | 78.4 | 85.1 | 2.81 | 86.1 | 86.4 | 84 | 70.7 | 70.7 | 95.8 | 86.3 | 66.8 | 89.3 | 57.2 | 80.1 | 71 | 75.7 | 98.9 | 
7 | Nc1nc(F)nc2c1ncn2[C@@H]1O[C@H](CO)[C@@H](O)[C@@H]1O [Fludarabine] (10000 nM) | 97.5 | 93.6 | 96 | 101 | 68.5 | 97.6 | 116 | 101 | 91.6 | 93.3 | 103 | 84.9 | 98.5 | 119 |  | 82.9 | 79.1 | 86.1 | 87.6 | 125 | 83.9 | 106 | 69.9 | 78.9 | 86.3 | 96.3 | 98.3 | 114 | 95.2 | 53.2 | 112 | 105 | 108 | 99 | 93 | 105 | 101
8 | O=C(O)C1(C(=O)O)CCC1.[NH2-].[NH2-].[Pt+2] [Carboplatin] (10000 nM) | 106 | 88.1 | 103 | 97.1 | 99.3 | 99.8 |  | 100 | 101 | 135 | 103 | 99.8 | 94.3 | 108 | 94 | 98.8 | 103 | 101 | 103 | 114 | 96.4 | 96.9 | 103 | 108 | 89.2 | 101 | 99.3 | 99.2 | 96.9 | 92.5 | 95.8 | 92.4 | 102 | 92.8 | 97.8 | 80.6 | 117
9 | CCN(CC)CCCC(C)Nc1c2ccc(Cl)cc2nc2ccc(OC)cc12 (stereo not drawn) [Mepacrine] (50000 nM) | 104 | 97.8 | 95.8 | 99.1 | 101 | 96.4 | 104 | 93.3 | 112 | 58.1 |  | 91.2 | 61.2 | 89.7 | 84.8 | 100 | 106 | 106 | 91 | 87.4 | 103 | 92.2 | 99.2 | 113 | 100 | 101 | 97.7 | 100 | 94.8 | 97 | 98.8 | 102 | 93.5 | 89.3 | 88 | 99.8 | 103
